Laboratory results taken from the NIST ThermoML archive (doi:10.1016/j.jct.2005.08.009).

Assay: xn = mol fraction of the nth substance listed
Conditions: 101 kPa, Liquid

CC#N [acetonitrile] + O
Conditions | mass density, 298.15 K [kg/m3] | mass density, 303.15 K [kg/m3] | mass density, 308.15 K [kg/m3] | mass density, 313.15 K [kg/m3] | mass density, 318.15 K [kg/m3] | viscosity, 298.15 K [mPa·s] | viscosity, 303.15 K [mPa·s] | viscosity, 308.15 K [mPa·s] | viscosity, 313.15 K [mPa·s] | viscosity, 318.15 K [mPa·s]
x1 = 0.051 | 978.98 | 975.65 | 972.14 | 969.11 | 965.89 | 0.9849 | 0.8799 | 0.7964 | 0.7208 | 0.6522
x1 = 0.1169 | 954.73 | 951.24 | 947.08 | 943.32 | 939.05 | 0.9567 | 0.8628 | 0.7842 | 0.7155 | 0.6524
x1 = 0.1971 | 924.74 | 921.1 | 916.51 | 912.69 | 908.03 | 0.8743 | 0.7931 | 0.7218 | 0.6628 | 0.6069
x1 = 0.2728 | 900.14 | 896.29 | 891.33 | 887.31 | 882.39 | 0.7891 | 0.7152 | 0.6502 | 0.5951 | 0.5462
x1 = 0.3601 | 876.35 | 872.19 | 866.86 | 862.67 | 857.41 | 0.6953 | 0.6298 | 0.5737 | 0.5266 | 0.4853
x1 = 0.4417 | 857.17 | 852.79 | 846.98 | 842.61 | 837.06 | 0.6061 | 0.5574 | 0.5121 | 0.4744 | 0.4435
x1 = 0.5204 | 841.27 | 836.65 | 830.76 | 826.18 | 820.41 | 0.5387 | 0.4972 | 0.4606 | 0.4317 | 0.4089
x1 = 0.6012 | 826.9 | 822.15 | 816.07 | 811.38 | 805.44 | 0.4802 | 0.4473 | 0.4189 | 0.3959 | 0.3783
x1 = 0.6671 | 816.3 | 811.49 | 805.22 | 800.45 | 794.36 | 0.4415 | 0.4138 | 0.3902 | 0.3698 | 0.3556
x1 = 0.7398 | 805.64 | 800.78 | 794.39 | 789.71 | 783.69 | 0.4064 | 0.3831 | 0.3633 | 0.3471 | 0.3353
x1 = 0.8253 | 794.81 | 789.89 | 783.52 | 778.81 | 772.68 | 0.3722 | 0.3545 | 0.3386 | 0.3256 | 0.3159
x1 = 0.886 | 787.78 | 782.84 | 776.44 | 771.75 | 765.67 | 0.3561 | 0.3405 | 0.3259 | 0.3142 | 0.3039
x1 = 0.9389 | 782.44 | 777.52 | 771.07 | 766.36 | 760.29 | 0.3478 | 0.333 | 0.3173 | 0.3061 | 0.2963
x1 = 0.999 | – | – | – | – | – | 0.3418 | 0.3281 | 0.313 | 0.301 | 0.29
x1 = 1 | 776.69 | 771.89 | 765.46 | 760.86 | 754.76 | 0.3417 | 0.328 | 0.3129 | 0.3009 | 0.2899
